Tests used:
La:fPolyU complex = system: T1, La:fPolyU complex; assay: EMSA, compound competition, La-WT:fPolyU; format: binding, human
T1 construct: His; made in house; host or cells: E. coli BL21
Protocol: (§1) 12% native TBE polyacrylamide gels were prepared in a Mini-PROTEAN Tetra Handcast System (BioRad). The gel was pre-run for 30 min at 140 V in 1x TBE buffer (45 mM Tris/HCl pH 8.5, 45 mM boric acid, 1 mM EDTA). To prepare the RNA-mix, fluorescence labeled RNA oligoribonucleotides (oligos) were diluted in fluorescence polarization buffer (20 mM Tris/HCl (pH 7.4), 150 mM NaCl, 3.0 mM MgCl2, 0.5 mM EDTA, 0.05% (v/v) IGEPAL), mixed for 10 min at 80°C, and then immediately placed on ice for at least 5 min. All RNA oligos were used at a final concentration of 50 nM. Recombinant La protein was diluted in D-buffer (20 mM Tris/ HCl (pH 7.4), 150mM NaCl, 3mM MgCl2, 0.5mM EDTA, 5% glycerol) and placed on ice until use.
(§2) La titration was performed at final concentrations of 20, 40, 60, 100, 200, 300, 400, 500, 600 nM La. Three different La concentrations were used for compound studies: 60 nM for fD1 RNA, 200 nM for fPolyU RNA, and 150 nM for TOPf RNA studies. Two μl of diluted compound (diluted in 100% DMSO) or 2 μl 100% DMSO (control reaction) was combined with 8 μl La-mix in a 96-well plate. 10 μl RNA-mix was added, mixed for 2 min, and incubated for 10 min at RT in the dark. […] The La-RNA complex (La-RNP) formation was quantified using the ImageQuant TL software. […]

La:TOPf complex = system: T2, La:TOPf complex; assay: EMSA, compound competition, La-WT:TOPf; format: binding, human; conditions: TOPf 50 nM
T2 construct: His; made in house; host or cells: E. coli BL21
Protocol: as §1, §2

La-RRM1+2:fD1 complex = assay: EMSA, compound competition, La-RRM1+2:fD1; format: binding, human; conditions: La-RRM1+2 60 nM, fD1 50 nM
Protocol: as §1, §2

HEK293 cells = assay: HEK293 cell proliferation and viability; format: cell-based, human; conditions: data not shown
[1] = system: T3, gfp-tagged La-WT association with cellular mRNAs; assay: RNA immunoprecipitation (RIP) with RT-qPCR in HEK293 expressing gfp-tagged La; format: cell-based, human; conditions: 150 μM, HEK293 gfpLa
T3 construct: full length La (La wildtype, La-WT); expressed in transfected cells
Protocol: RIP experiments were performed with HEK293 stably expressing gfp (green fluorescent protein)-tagged La wiltype (La-WT) protein as described recently. The compound C2:01 was dissolved in 100% DMSO to a concentration of 100 mM. Subsequently, the compound was diluted in media to 10 mM (10% DMSO) and 1 mM (1% DMSO). The 1 mM stock was diluted 6.7-fold in culture media to reach a final concentration of 150 μM (0.15% DMSO). Cells were washed with ice-cold 1x PBS, and lysed by incubating with lysis buffer (20 mM Tris-HCl, (pH 7.4), 150 mM NaCl, 1% IGEPAL CA-630, 10% glycerol, 1 mM EDTA, 50mM NaF, and 1 mM DTT, supplemented with RNase inhibitors and protease inhibitors) on tube rotator for 15 min at 4°C. The cell lysate was sonicated (3 sec for 10 times at power 3, Sonic Dismembrator Model 100) and cleared by centrifugation at 14,000 g at 4°C for 20 min. The cleared lysate was incubated with anti-gfp magnetic beads (MBL International) on the orbital rotor at 4°C overnight. The beads were washed four times with wash buffer I (50 mM Tris-HCl (pH 7.4), 300 mM NaCl, 0.05% IGEPAL CA-630, 20 mM EDTA, 1 mM DTT, and 1 mM MgCl2) and three times with wash buffer II (50 mM Tris-HCl (pH 7.4), 300 mM NaCl, 0.05% IGEPAL CA-630, 20 mM EDTA, 1 mM DTT, 1 mM MgCl2 and 1 M urea)[29].
For preparation of the RNA, the beads were resuspended in wash buffer II and RNA was extracted by applying the Phenol-Chloroform-Isoamyl alcohol method. […] The RNA pellet was dissolved in RNase-DNase-free H2O and quantitated by NanoDrop spectrophotometer and subjected to RT-qPCR analysis. By RT-qPCR the La-specific RIP-RNA pellets (gfp-tagged La) were tested for the presence of Bcl2, CCND1, L37, L22 and S6 mRNA and none of those were detected in the control RIP experiments (gfp alone). The enrichment was calculated by establishing standard curves for specific mRNAs using the RT^2 qPCR Primer Assays (Qiagen): Bcl2 (PPH00079B), CCND1 (PPH00128F), L37 (QT00014105), L22 (QT00079982), S6 (QT02505328) as described recently. […]

SCC 22A cells = assay: Phase contrast microscopy and cisplatin IC50, SCC 22A; format: cell-based, human; conditions: C2.01 (50 μM) combined with cisplatin 12 μM

Structure (SMILES) | concentration impairing La:PolyU complex formation (EMSA) (La:fPolyU complex; La-WT 200 nM, fPolyU 50 nM, highest concentration tested) [mM] | impairment of La:TOPf complex formation (EMSA), in words (La:TOPf complex; La-WT 200 nM) | concentration blocking La-RRM1+2:fD1 complex formation (EMSA) (La-RRM1+2:fD1 complex) [mM] | competition for La:fPolyU complex formation (EMSA), in words (La:fPolyU complex; compared with La:fD1 and La:TOPf) | concentration blocking La-WT:TOPf complex formation (EMSA) (La:TOPf complex; La-WT 150 nM) [µM] | cell proliferation and viability of HEK293 cells (HEK293 cells; 150 μM or below) | cell proliferation and viability of HEK293 cells (HEK293 cells; 300 or 450 μM) | binding of La to Bcl2 mRNA in cells (RIP) [1] | binding of La to CCND1 mRNA in cells (RIP) [1] | binding of La to TOP mRNAs encoding RPL37, RPL5 and RPSK6 in cells (RIP) [1] | cell number by phase contrast images (SCC 22A cells)
O=C(O)c1ccccc1C(=O)c1ccc(O)cc1O [C2, 2-(2,4-dihydroxybenzoyl)benzoic acid] | 10 | only at the highest concentration tested | 5 |  |  |  |  |  |  |  | 
CCOC(=O)c1ccc2c(c1)C1C=CCC1C(C(=O)O)N2 (stereo not drawn) [C6, 8-(ethoxycarbonyl)-3a,4,5,9b-tetrahydro-3Hcyclopenta[c]quinoline-4-carboxylic acid] |  |  | 0.01 | weaker competitor | 10 |  |  |  |  |  | 
Cc1ccc(C(=O)c2ccccc2C(=O)O)c(O)c1 [C2.01, 2-(2-hydroxy-4-methylbenzoyl)benzoic acid] |  |  |  |  |  | not | impaired | selectively impaired | selectively impaired | no effect | dramatically reduced cell number

Reference: PMC5349447, “Applying a high-throughput fluorescence polarization assay for the discovery of chemical probes blocking La:RNA interactions in vitro and in cells” (PLoS ONE, 2017)
